Results taken from patent US20180228827A1, “FIXED-DOSE COMBINATIONS OF ANTIVIRAL COMPOUNDS” (MERCK SHARP & DOHME CORP., priority 2015, published 2018).

Test: pH-dependent solubility profile of Compound II
Format: physicochemical
Details: particularly between pH 1-4

## COC(=O)N[C@H](C(=O)N1CCC[C@H]1c1ncc(-c2cc(F)c3c(c2)O[C@@H](c2cnc(C4CC4)s2)n2c-3cc3cc(-c4cnc([C@@H]5CCCN5C(=O)[C@@H](NC(=O)OC)C(C)C)[nH]4)ccc32)[nH]1)C(C)C [Compound II, dimethyl ((2S,2′S)-((2S,2′S)-2,2′-(5,5′-((S)-6-(2-cyclopropylthiazol-5-yl)-1-fluoro-6H-benzo[5,6][1,3]oxazino[3,4-a]indole-3,10-diyl)bis(1H-imidazole-5,2-diyl))bis(pyrrolidine-2,1-diyl))bis(3-methyl-1-oxobutane-2,1-diyl))dicarbamate]
  solubility profile: sharp pH-dependent solubility profile
